Experimental data: ChEMBL document CHEMBL3853314, “G-Protein-Coupled Receptor Kinase 2 (GRK2) Inhibitors: Current Trends and Future Perspectives” (J Med Chem, 2016)
Counter-ions that a name gives are not always drawn. Peptide text beside a SMILES is read from it.

What was measured:
[1] = target: G protein-coupled receptor kinase 5 (Homo sapiens, UniProt P34947); experiment: Inhibition of recombinant human GRK5 expressed in Sf9 insect cells assessed as decrease in phosphorylation of urea-washed bovine rod outer segments in presence of Gbetagamma subunits and [gamma-32P]-ATP after 5 to 60 mins by SDS-PAGE analysis
[2] = target: Beta-adrenergic receptor kinase 1 (Bos taurus, UniProt P21146, S670A); experiment: Inhibition of bovine GRK2 expressed in Sf9 insect cells assessed as decrease in phosphorylation of urea-washed bovine rod outer segments in presence of Gbetagamma subunits and [gamma-32P]-ATP after 5 to 60 mins by SDS-PAGE analysis
[3] = target: T1, G protein-coupled receptor kinase 3 (Bos taurus, UniProt P26818); experiment: Inhibition of recombinant bovine GRK3 expressed in Sf9 insect cells assessed as decrease in phosphorylation of urea-washed bovine rod outer segments in presence of Gbetagamma subunits and [gamma-32P]-ATP after 5 to 60 mins by SDS-PAGE analysis
T1 sequence (P26818 whole entry): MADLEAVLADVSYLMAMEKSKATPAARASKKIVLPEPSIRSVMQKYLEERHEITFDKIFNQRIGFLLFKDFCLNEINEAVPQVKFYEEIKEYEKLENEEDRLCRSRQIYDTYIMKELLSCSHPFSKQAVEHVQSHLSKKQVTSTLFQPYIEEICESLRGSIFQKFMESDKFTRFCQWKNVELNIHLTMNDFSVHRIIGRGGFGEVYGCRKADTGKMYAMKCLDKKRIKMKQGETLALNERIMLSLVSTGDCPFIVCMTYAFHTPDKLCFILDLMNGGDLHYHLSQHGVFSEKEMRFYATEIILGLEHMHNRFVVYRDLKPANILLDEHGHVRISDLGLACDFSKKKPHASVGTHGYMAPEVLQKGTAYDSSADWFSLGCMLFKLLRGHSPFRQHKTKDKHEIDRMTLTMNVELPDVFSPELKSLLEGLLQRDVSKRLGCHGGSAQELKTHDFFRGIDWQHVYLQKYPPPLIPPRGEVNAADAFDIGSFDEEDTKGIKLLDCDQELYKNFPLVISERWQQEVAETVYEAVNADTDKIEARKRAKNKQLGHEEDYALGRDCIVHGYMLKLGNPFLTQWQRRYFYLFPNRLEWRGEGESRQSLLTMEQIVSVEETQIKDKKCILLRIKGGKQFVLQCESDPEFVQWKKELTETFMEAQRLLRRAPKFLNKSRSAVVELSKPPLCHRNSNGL

Rhodopsin kinase GRK1 = target: T2, Rhodopsin kinase GRK1 (Bos taurus, UniProt P28327); experiment: Inhibition of bovine GRK1 (1 to 535 residues) assessed as decrease in phosphorylation of tubulin after 5 mins by SDS-PAGE analysis
T2 sequence (P28327 whole entry): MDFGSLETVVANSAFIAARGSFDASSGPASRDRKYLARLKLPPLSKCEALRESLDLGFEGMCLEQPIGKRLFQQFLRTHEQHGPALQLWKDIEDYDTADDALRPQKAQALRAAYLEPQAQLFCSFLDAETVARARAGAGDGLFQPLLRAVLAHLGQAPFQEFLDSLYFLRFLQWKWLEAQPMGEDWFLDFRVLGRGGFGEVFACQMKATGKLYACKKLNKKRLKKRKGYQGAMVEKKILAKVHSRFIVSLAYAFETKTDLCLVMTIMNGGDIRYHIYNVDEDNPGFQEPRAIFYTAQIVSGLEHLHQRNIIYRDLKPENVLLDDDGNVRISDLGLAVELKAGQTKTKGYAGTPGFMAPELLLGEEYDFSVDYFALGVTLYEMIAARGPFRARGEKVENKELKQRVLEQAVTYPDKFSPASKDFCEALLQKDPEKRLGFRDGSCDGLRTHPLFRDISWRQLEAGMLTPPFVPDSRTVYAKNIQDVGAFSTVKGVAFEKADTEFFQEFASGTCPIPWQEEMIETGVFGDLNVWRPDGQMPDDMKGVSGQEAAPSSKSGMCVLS

[4] = Inhibition of PKA (unknown origin) using LRRASLG as substrate incubated for 30 mins by ADP-Glo assay; set-up: species or system Homo sapiens
[5] = target: G protein-coupled receptor kinase 5 (Bos taurus, UniProt P43249); experiment: Inhibition of bovine GRK5 assessed as decrease in phosphorylation of tubulin after 5 mins by SDS-PAGE analysis
[6] = target: Beta-adrenergic receptor kinase 1 (Homo sapiens, UniProt P25098, S670A); experiment: Inhibition of human GRK2 S670A mutant assessed as decrease in phosphorylation of light-activated bovine rod outer segments after 5 mins by SDS-PAGE analysis
[7] = target: T3, Beta-adrenergic receptor kinase 1 (Bos taurus, UniProt P21146); experiment: Inhibition of bovine cerebral cortex GRK2 assessed as decrease in rhodopsin phosphorylation by SDS-PAGE analysis
T3 sequence (P21146 whole entry): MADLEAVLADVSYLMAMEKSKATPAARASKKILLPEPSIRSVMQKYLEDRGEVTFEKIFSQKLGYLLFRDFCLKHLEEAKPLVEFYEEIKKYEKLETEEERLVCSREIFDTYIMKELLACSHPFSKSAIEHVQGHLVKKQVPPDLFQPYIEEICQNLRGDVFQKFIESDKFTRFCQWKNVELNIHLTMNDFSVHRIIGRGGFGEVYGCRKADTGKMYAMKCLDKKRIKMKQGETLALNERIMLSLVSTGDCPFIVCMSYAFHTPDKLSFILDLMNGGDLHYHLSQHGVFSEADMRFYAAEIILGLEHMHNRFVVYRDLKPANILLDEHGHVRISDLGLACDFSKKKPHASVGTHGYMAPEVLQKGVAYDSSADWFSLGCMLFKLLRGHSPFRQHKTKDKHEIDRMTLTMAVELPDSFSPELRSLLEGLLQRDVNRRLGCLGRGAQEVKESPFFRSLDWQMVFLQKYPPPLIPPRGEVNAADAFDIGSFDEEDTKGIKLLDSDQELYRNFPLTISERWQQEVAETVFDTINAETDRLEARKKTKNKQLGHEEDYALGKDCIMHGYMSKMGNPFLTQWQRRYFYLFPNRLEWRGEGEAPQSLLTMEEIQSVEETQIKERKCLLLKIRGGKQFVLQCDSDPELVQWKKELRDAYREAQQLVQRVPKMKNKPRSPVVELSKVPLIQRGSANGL

[8] = Inhibition of human PKA catalytic subunit
[9] = target: Protein kinase C alpha type (Homo sapiens, UniProt P17252); experiment: Inhibition of recombinant full-length human N-terminal GST tagged PKCalpha expressed in Baculovirus infected Sf9 insect cells using KRREILSRRPSYR as substrate incubated for 30 mins by ADP-Glo assay

Sequence of Beta-adrenergic receptor kinase 1 (Bos taurus, UniProt P21146, S670A) (P21146 whole entry S670A): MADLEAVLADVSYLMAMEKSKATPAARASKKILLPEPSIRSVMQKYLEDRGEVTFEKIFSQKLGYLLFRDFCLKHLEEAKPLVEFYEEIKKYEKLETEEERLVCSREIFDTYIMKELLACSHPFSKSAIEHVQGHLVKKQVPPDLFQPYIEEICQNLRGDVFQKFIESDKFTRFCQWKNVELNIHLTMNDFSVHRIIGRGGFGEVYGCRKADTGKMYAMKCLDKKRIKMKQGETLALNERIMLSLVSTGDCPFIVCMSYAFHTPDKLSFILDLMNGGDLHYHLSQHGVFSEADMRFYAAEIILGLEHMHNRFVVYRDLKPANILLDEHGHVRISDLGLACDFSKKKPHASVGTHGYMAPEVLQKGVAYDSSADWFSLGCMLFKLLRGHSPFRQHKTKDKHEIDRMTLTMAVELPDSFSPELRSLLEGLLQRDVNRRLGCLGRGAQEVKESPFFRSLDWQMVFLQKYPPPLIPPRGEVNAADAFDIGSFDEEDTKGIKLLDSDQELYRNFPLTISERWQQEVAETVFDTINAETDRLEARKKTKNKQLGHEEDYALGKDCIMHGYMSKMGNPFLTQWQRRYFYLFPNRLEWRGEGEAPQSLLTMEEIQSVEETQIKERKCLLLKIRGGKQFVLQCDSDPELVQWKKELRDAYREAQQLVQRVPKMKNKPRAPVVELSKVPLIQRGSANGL
Sequence of G protein-coupled receptor kinase 5 (Homo sapiens, UniProt P34947) (P34947 whole entry): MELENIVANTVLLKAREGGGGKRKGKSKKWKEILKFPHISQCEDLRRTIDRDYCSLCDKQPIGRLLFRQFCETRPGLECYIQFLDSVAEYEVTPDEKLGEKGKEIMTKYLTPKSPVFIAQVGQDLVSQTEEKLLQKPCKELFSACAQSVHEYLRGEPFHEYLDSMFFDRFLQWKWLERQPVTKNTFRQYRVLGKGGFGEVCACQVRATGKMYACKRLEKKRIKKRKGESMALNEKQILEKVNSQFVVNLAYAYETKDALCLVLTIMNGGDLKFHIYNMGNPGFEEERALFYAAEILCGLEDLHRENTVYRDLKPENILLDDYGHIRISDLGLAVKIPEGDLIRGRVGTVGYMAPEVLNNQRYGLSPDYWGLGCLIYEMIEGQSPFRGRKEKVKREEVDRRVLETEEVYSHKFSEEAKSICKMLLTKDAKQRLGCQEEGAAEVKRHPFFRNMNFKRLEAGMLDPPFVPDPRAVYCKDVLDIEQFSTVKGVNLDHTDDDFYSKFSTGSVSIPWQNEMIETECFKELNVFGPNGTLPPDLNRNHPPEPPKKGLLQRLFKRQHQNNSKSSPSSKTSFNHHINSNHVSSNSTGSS
Sequence of Beta-adrenergic receptor kinase 1 (Homo sapiens, UniProt P25098, S670A) (P25098 whole entry S670A): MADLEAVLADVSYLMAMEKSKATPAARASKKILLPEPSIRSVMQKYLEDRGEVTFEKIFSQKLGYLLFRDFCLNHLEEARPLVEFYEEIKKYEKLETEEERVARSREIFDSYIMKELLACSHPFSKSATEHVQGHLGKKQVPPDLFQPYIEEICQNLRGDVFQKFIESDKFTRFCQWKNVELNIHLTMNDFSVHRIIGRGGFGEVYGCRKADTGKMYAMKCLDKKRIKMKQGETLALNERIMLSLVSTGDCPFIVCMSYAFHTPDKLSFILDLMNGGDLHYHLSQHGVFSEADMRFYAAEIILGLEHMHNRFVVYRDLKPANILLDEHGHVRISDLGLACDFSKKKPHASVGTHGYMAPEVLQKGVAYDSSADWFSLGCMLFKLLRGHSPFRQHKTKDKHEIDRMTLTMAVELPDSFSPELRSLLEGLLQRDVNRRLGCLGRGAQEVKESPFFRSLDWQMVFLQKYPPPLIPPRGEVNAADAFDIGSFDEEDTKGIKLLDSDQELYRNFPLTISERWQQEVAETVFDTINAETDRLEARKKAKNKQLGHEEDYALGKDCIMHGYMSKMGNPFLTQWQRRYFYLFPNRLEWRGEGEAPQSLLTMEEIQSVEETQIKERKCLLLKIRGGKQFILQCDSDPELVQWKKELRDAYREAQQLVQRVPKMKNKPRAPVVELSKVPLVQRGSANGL
Sequence of G protein-coupled receptor kinase 5 (Bos taurus, UniProt P43249) (P43249 whole entry): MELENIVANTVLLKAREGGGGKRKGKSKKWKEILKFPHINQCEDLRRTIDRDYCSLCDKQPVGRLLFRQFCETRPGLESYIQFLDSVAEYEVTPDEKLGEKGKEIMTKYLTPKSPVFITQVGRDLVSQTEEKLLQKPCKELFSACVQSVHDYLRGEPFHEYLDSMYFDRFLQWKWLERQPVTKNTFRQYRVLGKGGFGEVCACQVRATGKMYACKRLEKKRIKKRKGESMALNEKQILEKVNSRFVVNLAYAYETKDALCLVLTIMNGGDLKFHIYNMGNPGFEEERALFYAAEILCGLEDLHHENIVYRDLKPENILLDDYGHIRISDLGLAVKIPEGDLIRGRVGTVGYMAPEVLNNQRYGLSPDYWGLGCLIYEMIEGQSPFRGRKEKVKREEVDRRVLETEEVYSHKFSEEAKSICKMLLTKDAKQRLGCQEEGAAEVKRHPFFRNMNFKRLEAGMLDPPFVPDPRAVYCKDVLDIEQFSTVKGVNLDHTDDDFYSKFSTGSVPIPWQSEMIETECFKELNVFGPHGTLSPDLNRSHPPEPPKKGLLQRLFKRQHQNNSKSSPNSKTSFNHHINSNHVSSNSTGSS

IC50 [1] [µM] | IC50 [2] [µM] | IC50 [3] [µM] | IC50 [4] [µM] | Compound | other results
 |  |  | 12.6 | CC1=C(C(=O)Nc2cc(Cl)c3[nH]ncc3c2)C(c2ccc(C(F)(F)F)cc2)CC(=O)N1 (configuration not stated) [GSK-466317A] | IC50 (Rhodopsin kinase GRK1): 1000 µM
 |  |  | 200 | CC1=C(C(=O)Nc2ccc3[nH]ncc3c2)C(c2ccc(F)cc2)N=C(c2ccc(C(F)(F)F)cc2)N1 (configuration not stated) | IC50 [5]: 631 µM; IC50 (Rhodopsin kinase GRK1): > 1000 µM
 |  |  | 50.1 | CC1=C(C(=O)Nc2ccc3[nH]ncc3c2)C(c2ccc3ccccc3c2)CC(=O)N1 (configuration not stated) [GSK-270822A] | 
 |  |  | 63.1 | CC1=C(C(=O)Nc2ccc3[nH]ncc3c2)C(c2ccc(Cl)c(Cl)c2)CC(=O)N1 (configuration not stated) [GSK-299115A] | 
 |  |  | > 500 | CC1=C(C(=O)Nc2ccc3[nH]ncc3c2)C(c2ccc(F)cc2)NC(=O)N1 (configuration not stated) [GSK-180736A] | 
1.6 | 0.6 | 1.5 |  | CC[C@H](C)[C@H](NC(=O)[C@H](Cc1ccccc1)NC(=O)[C@H](Cc1ccc(O)cc1)NC(=O)[C@H](CC(N)=O)NC(=O)[C@@H](NC(=O)[C@@H](NC(=O)[C@@H](NC(=O)[C@H](CCC(N)=O)NC(=O)[C@H](CC(C)C)NC(=O)[C@H](CCCNC(=N)N)NC(=O)[C@H](CCC(=O)O)NC(=O)[C@H](Cc1ccccc1)NC(=O)[C@H](CCCCN)NC(=O)[C@H](C)N)[C@@H](C)O)C(C)C)[C@@H](C)O)C(=O)N[C@H](C(=O)N[C@@H](CO)C(=O)N[C@@H](CCC(=O)O)C(=O)O)[C@@H](C)O (H-AKFERLQTVTNYFITSE-OH) | 
 |  |  | > 45 | Fc1ccc([C@@H]2CCNC[C@H]2COc2ccc3c(c2)OCO3)cc1 [PAROXETINE HYDROCHLORIDE] | IC50 [9]: 220 µM

The next lines start with the compound.

Compound | IC50 [1] [µM] | IC50 [2] [µM] | IC50 [3] [µM] | IC50 [4] [µM] | other results
CC[C@H](C)[C@H](NC(=O)[C@H](Cc1ccccc1)NC(=O)[C@H](Cc1ccc(O)cc1)NC(=O)[C@H](CC(N)=O)NC(=O)[C@@H](NC(=O)[C@@H](NC(=O)[C@@H](NC(=O)[C@H](CCC(N)=O)NC(=O)[C@H](CC(C)C)NC(=O)[C@H](CCCNC(=N)N)NC(=O)[C@H](CCC(=O)O)NC(=O)[C@H](Cc1ccccc1)NC(=O)[C@H](CCCCN)NC(=O)[C@H](C)N)[C@@H](C)O)C(C)C)[C@@H](C)O)C(=O)N[C@H](C(=O)N[C@@H](CO)C(=O)N[C@@H](CCCCN)C(=O)O)[C@@H](C)O (H-AKFERLQTVTNYFITSK-OH) | 9.4 | 32.2 | 55.5 |  | 
CC[C@H](C)[C@H](NC(=O)[C@H](C)NC(=O)[C@@H](NC(=O)[C@@H](N)CCCCN)[C@@H](C)O)C(=O)N[C@@H](C)C(=O)N[C@@H](CCCCN)C(=O)N[C@@H](Cc1ccccc1)C(=O)N[C@@H](CCC(=O)O)C(=O)N[C@@H](CCCNC(=N)N)C(=O)N[C@@H](CC(C)C)C(=O)N[C@@H](CCC(N)=O)C(=O)N[C@H](C(=O)N[C@H](C(=O)N[C@H](C(=O)N[C@@H](CC(N)=O)C(=O)N[C@@H](Cc1ccc(O)cc1)C(=O)N[C@@H](Cc1ccccc1)C(=O)N[C@H](C(=O)N[C@H](C(=O)N[C@@H](CO)C(=O)N[C@@H](CCC(=O)O)C(=O)O)[C@@H](C)O)[C@@H](C)CC)[C@@H](C)O)C(C)C)[C@@H](C)O (H-KTAIAKFERLQTVTNYFITSE-OH) | 3.9 | 4.4 | 6.1 |  | 
CC[C@H](C)[C@H](NC(=O)[C@H](C)NC(=O)[C@@H](NC(=O)[C@@H](N)CCC(=O)O)[C@@H](C)O)C(=O)N[C@@H](C)C(=O)N[C@@H](CCCCN)C(=O)N[C@@H](Cc1ccccc1)C(=O)N[C@@H](CCC(=O)O)C(=O)N[C@@H](CCCNC(=N)N)C(=O)N[C@@H](CC(C)C)C(=O)N[C@@H](CCC(N)=O)C(=O)N[C@H](C(=O)N[C@H](C(=O)N[C@H](C(=O)N[C@@H](CC(N)=O)C(=O)N[C@@H](Cc1ccc(O)cc1)C(=O)N[C@@H](Cc1ccccc1)C(=O)N[C@H](C(=O)N[C@H](C(=O)N[C@@H](CO)C(=O)N[C@@H](CCCCN)C(=O)O)[C@@H](C)O)[C@@H](C)CC)[C@@H](C)O)C(C)C)[C@@H](C)O (H-ETAIAKFERLQTVTNYFITSK-OH) | 7.4 | 52.2 | 22.6 |  | 
CC[C@H](C)[C@H](NC(=O)[C@H](C)NC(=O)[C@@H](NC(=O)[C@@H](N)CCCCN)[C@@H](C)O)C(=O)N[C@@H](C)C(=O)N[C@@H](CCCCN)C(=O)N[C@@H](Cc1ccccc1)C(=O)N[C@@H](CCC(=O)O)C(=O)N[C@@H](CCCNC(=N)N)C(=O)N[C@@H](CC(C)C)C(=O)N[C@@H](CCC(N)=O)C(=O)N[C@H](C(=O)N[C@H](C(=O)N[C@H](C(=O)N[C@@H](CC(N)=O)C(=O)N[C@@H](Cc1ccc(O)cc1)C(=O)N[C@@H](Cc1ccccc1)C(=O)N[C@H](C(=O)N[C@H](C(=O)N[C@@H](CO)C(=O)N[C@@H](CCCCN)C(=O)O)[C@@H](C)O)[C@@H](C)CC)[C@@H](C)O)C(C)C)[C@@H](C)O (H-KTAIAKFERLQTVTNYFITSK-OH) | 61.3 | 36.5 | 30.4 |  | 
O=C1NCc2ccc(OC[C@@H]3CNCC[C@H]3c3ccc(F)cc3)cc21 |  |  |  |  | IC50 [6]: 6.3 µM
CC[C@H](C)[C@H](NC(=O)[C@H](C)NC(=O)[C@@H](NC(=O)[C@@H](N)CCCCN)[C@@H](C)O)C(=O)N[C@@H](C)C(=O)N[C@@H](CCCCN)C(=O)N[C@@H](Cc1ccccc1)C(=O)N[C@@H](CCC(=O)O)C(=O)N[C@@H](CCCNC(=N)N)C(=O)N[C@@H](CC(C)C)C(=O)N[C@@H](CCC(N)=O)C(=O)N[C@H](C(=O)N[C@H](C(=O)N[C@H](C(=O)N[C@@H](CC(N)=O)C(=O)O)[C@@H](C)O)C(C)C)[C@@H](C)O (H-KTAIAKFERLQTVTN-OH) | 2.1 | 5.6 | 11.6 |  | 
O=S(=O)(O)O[C@H]1[C@H](OS(=O)(=O)O)[C@@H](OS(=O)(=O)O)[C@H](OS(=O)(=O)O)[C@@H](OS(=O)(=O)O)[C@H]1OS(=O)(=O)O |  |  |  |  | IC50 [7]: 13.5 µM
Cn1c(CNc2cccc(C(=O)NCc3ccccc3C(F)(F)F)c2)nnc1-c1ccncc1 |  |  |  |  | IC50 [8]: > 2 µM
O=P(O)(O)O[C@@H]1[C@H](O)[C@H](O)[C@@H](O)[C@H](O)[C@H]1O |  |  |  |  | IC50 [7]: 3600 µM
